Measured values published in ChEMBL document CHEMBL1201862, “PubChem BioAssay data set” (2004).
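Protocol summary: plate cells (96-well), add compound at 5 concentrations, incubate 48 h, interpolate endpoints linearly. At the GI50, growth is halved.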 Calls of active or inactive are those of the source. Rule as the data show it: active = GI50 up to about 1.1 µM and inactive = higher.

Assays:
Assay in all cases: NCI-60 cell line screen, 48 h
CAKI-1 = tested on: CAKI-1
COLO 205 = tested on: COLO 205
DU-145 = tested on: DU-145
HCT-116 = tested on: HCT-116
HCT-15 = tested on: HCT-15
HOP-62 = tested on: HOP-62
HT-29 = tested on: HT-29
IGROV-1 = tested on: IGROV-1
LOX IMVI = tested on: LOX IMVI
MOLT-4 = tested on: MOLT-4
Malme-3M = tested on: Malme-3M
NCI-H226 = tested on: NCI-H226
NCI-H23 = tested on: NCI-H23
RPMI-8226 = tested on: RPMI-8226
SK-MEL-2 = tested on: SK-MEL-2
SN12C = tested on: SN12C
TK-10 = tested on: TK-10
U-251 = tested on: U-251
UACC-62 = tested on: UACC-62

SMILES | GI50 (CAKI-1) | GI50 (COLO 205) | GI50 (DU-145) | GI50 (HCT-116) | GI50 (HCT-15) [µM] | GI50 (HOP-62) | GI50 (HT-29) | GI50 (IGROV-1) | GI50 (LOX IMVI) | GI50 (MOLT-4) | GI50 (Malme-3M) | GI50 (NCI-H226) | GI50 (NCI-H23) | GI50 (RPMI-8226) | GI50 (SK-MEL-2) | GI50 (SN12C) | GI50 (TK-10) | GI50 (U-251) | GI50 (UACC-62)
Cc1cccc2c(O)c3c(O)cc(O)cc3nc12 | > 10 µM (inactive) | > 10 µM (inactive) | > 10 µM (inactive) | > 10 µM (inactive) | > 10 | > 10 µM (inactive) | > 10 µM (inactive) | > 10 µM (inactive) | > 10 µM (inactive) | > 10 µM (inactive) | > 10 µM (inactive) | > 10 µM (inactive) | > 10 µM (inactive) | > 10 µM (inactive) | > 10 µM (inactive) | > 10 µM (inactive) | > 10 µM (inactive) | > 10 µM (inactive) | > 10 µM (inactive)
CCOC(=O)C(C(=O)OCC)=C1NC2(c3ccccc3Nc3ccc(C)cc32)C(C(=O)OC)S1 (stereo not drawn) | 8.69 µM (inactive) | 11.6 µM (inactive) | 50.6 µM (inactive) | 9.64 µM (inactive) | 18.7 | 80 µM (inactive) | 23.9 µM (inactive) | 18.4 µM (inactive) | 33.5 µM (inactive) | 5.58 µM (inactive) | 22.5 µM (inactive) | 29.9 µM (inactive) | 25.5 µM (inactive) | 8.93 µM (inactive) | 14.7 µM (inactive) | 4.11 µM (inactive) | 46.9 µM (inactive) | 23.7 µM (inactive) | 20.8 µM (inactive)
COC(=O)/C=C/C(=O)Nc1cc(Cl)c(Cl)cc1CC(=O)N(C)[C@H]1CCCC[C@@H]1N1CCCC1 | 5.37 µM (inactive) | 1.54 µM (inactive) | 5.02 µM (inactive) | 6.5 µM (inactive) | 11.4 | 16.9 µM (inactive) | 7.8 µM (inactive) | 7.21 µM (inactive) | 5.3 µM (inactive) | 3.18 µM (inactive) | 6.41 µM (inactive) | 15.3 µM (inactive) | 13.8 µM (inactive) | 2.63 µM (inactive) | 7.29 µM (inactive) | 10.2 µM (inactive) | 2.29 µM (inactive) | 14.8 µM (inactive) | 13.9 µM (inactive)
Cn1c(=O)cc(/N=N\c2ccc(Cl)c(Cl)c2)[nH]c1=O | 13.4 µM (inactive) | 22.2 µM (inactive) | 85.5 µM (inactive) | 28.4 µM (inactive) | 19.6 | > 100 µM (inactive) | 19.9 µM (inactive) | 33 µM (inactive) | 19.2 µM (inactive) | 28.6 µM (inactive) | 16.1 µM (inactive) | > 100 µM (inactive) | 37.3 µM (inactive) | 28.3 µM (inactive) | 14.6 µM (inactive) | 41.1 µM (inactive) | 23.8 µM (inactive) | 23.3 µM (inactive) | 62.2 µM (inactive)
CN(C)CCNC(=O)c1cccc2c(NC(CCC(N)=O)C(=O)O)c3ccccc3nc12 (stereo not drawn) | 11.3 µM (inactive) | 4.8 µM (inactive) | 19.5 µM (inactive) | 6.03 µM (inactive) | 4.08 | 6.4 µM (inactive) | 4.67 µM (inactive) | 5.25 µM (inactive) | 5.48 µM (inactive) | 3.29 µM (inactive) | 5.56 µM (inactive) | 4.95 µM (inactive) | 3.45 µM (inactive) | 9.57 µM (inactive) | 11.9 µM (inactive) | 10.4 µM (inactive) | 34.1 µM (inactive) | 8.15 µM (inactive) | 19.9 µM (inactive)
Cc1ccc([N+](=O)[O-])cc1S(=O)(=O)Nc1ccc(C2=NOC(c3cccs3)C2)cc1 (stereo not drawn) | 18.7 µM (inactive) | 7.8 µM (inactive) | 17.6 µM (inactive) | 11.1 µM (inactive) | 4.75 | 5.79 µM (inactive) | 12.5 µM (inactive) | 11.1 µM (inactive) | 11 µM (inactive) | 4.04 µM (inactive) | 13.9 µM (inactive) | 25.1 µM (inactive) | 17.6 µM (inactive) | 10.4 µM (inactive) | 4.81 µM (inactive) | 17.9 µM (inactive) | 16.4 µM (inactive) | – | 3.78 µM (inactive)
c1cnc2c(c1)Nc1cnncc1S2 | 24.1 µM (inactive) | > 100 µM (inactive) | > 100 µM (inactive) | > 100 µM (inactive) | > 100 | > 100 µM (inactive) | > 100 µM (inactive) | > 100 µM (inactive) | > 100 µM (inactive) | > 100 µM (inactive) | > 100 µM (inactive) | 86.9 µM (inactive) | > 100 µM (inactive) | > 100 µM (inactive) | > 100 µM (inactive) | > 100 µM (inactive) | > 100 µM (inactive) | > 100 µM (inactive) | 77.6 µM (inactive)
COc1cccc(/C=C2\SC(=S)N(/C=C3\C(=O)Oc4ccccc4C3=O)C2=O)c1O | 81.1 µM (inactive) | 85.7 µM (inactive) | 74.5 µM (inactive) | 56.9 µM (inactive) | 43.2 | 50.7 µM (inactive) | 78.3 µM (inactive) | 59.2 µM (inactive) | 63.2 µM (inactive) | 39.1 µM (inactive) | > 100 µM (inactive) | > 100 µM (inactive) | 45.2 µM (inactive) | 18.8 µM (inactive) | 45.7 µM (inactive) | 56.4 µM (inactive) | – | 31.5 µM (inactive) | 53 µM (inactive)
CC(=O)O/C=C\OC1CCCC1 | > 100 µM (inactive) | > 100 µM (inactive) | > 100 µM (inactive) | – | > 100 | > 100 µM (inactive) | > 100 µM (inactive) | > 100 µM (inactive) | > 100 µM (inactive) | > 100 µM (inactive) | > 100 µM (inactive) | > 100 µM (inactive) | > 100 µM (inactive) | > 100 µM (inactive) | > 100 µM (inactive) | – | > 100 µM (inactive) | > 100 µM (inactive) | > 100 µM (inactive)
O=C(NNCC(F)(F)F)c1ccncc1 | > 100 µM (inactive) | > 100 µM (inactive) | > 100 µM (inactive) | > 100 µM (inactive) | > 100 | > 100 µM (inactive) | > 100 µM (inactive) | > 100 µM (inactive) | > 100 µM (inactive) | > 100 µM (inactive) | > 100 µM (inactive) | > 100 µM (inactive) | > 100 µM (inactive) | > 100 µM (inactive) | > 100 µM (inactive) | > 100 µM (inactive) | > 100 µM (inactive) | > 100 µM (inactive) | > 100 µM (inactive)
Cc1c(/N=N/c2ccc([N+](=O)[O-])cc2)nc2scc(-c3ccccc3)n12 | > 73.3 µM (inactive) | > 100 µM (inactive) | > 100 µM (inactive) | > 100 µM (inactive) | 31.6 | > 66.5 µM (inactive) | > 88.5 µM (inactive) | > 84.1 µM (inactive) | 57.1 µM (inactive) | 19.6 µM (inactive) | > 100 µM (inactive) | > 100 µM (inactive) | 90.8 µM (inactive) | 67.1 µM (inactive) | > 100 µM (inactive) | > 100 µM (inactive) | > 74.6 µM (inactive) | > 100 µM (inactive) | > 65.6 µM (inactive)
CC1OC(OC2C(OC(=O)[C@]34CCC(C)(C)C[C@H]3C3=CC[C@@H]5[C@@]6(C)CC[C@H](OC7OC(CO)C(O)C(O)C7OC7OC(CO)C(O)C(O)C7O)C(C)(C)[C@@H]6CC[C@@]5(C)[C@]3(C)CC4)OCC(O)C2O)C(O)C(O)C1OC1OCC(O)C(O)C1O (stereo partly drawn) | 5.01 µM (inactive) | 1.71 µM (inactive) | 11.9 µM (inactive) | 11 µM (inactive) | 15.7 | 15.3 µM (inactive) | 7.03 µM (inactive) | 16 µM (inactive) | 18.2 µM (inactive) | 16.4 µM (inactive) | 3.82 µM (inactive) | 10.8 µM (inactive) | 9.35 µM (inactive) | 12.9 µM (inactive) | 6.32 µM (inactive) | 3.13 µM (inactive) | 8.51 µM (inactive) | 15.1 µM (inactive) | 16.9 µM (inactive)
CC1=NN(c2nc(N)nc(C(C)Sc3cc(Cl)c(C)cc3S(N)(=O)=O)n2)C(C)(C)C1 (stereo not drawn) | > 10 µM (inactive) | > 10 µM (inactive) | > 10 µM (inactive) | > 10 µM (inactive) | > 10 | > 10 µM (inactive) | > 10 µM (inactive) | > 10 µM (inactive) | > 10 µM (inactive) | > 10 µM (inactive) | > 10 µM (inactive) | > 10 µM (inactive) | > 10 µM (inactive) | > 10 µM (inactive) | > 10 µM (inactive) | > 10 µM (inactive) | > 10 µM (inactive) | > 10 µM (inactive) | –
Cc1occc1/C(S)=N\c1ccc(Cl)c(C(=O)OCC(F)(F)F)c1 | 14.7 µM (inactive) | 22.4 µM (inactive) | 22.4 µM (inactive) | 17.9 µM (inactive) | 19.6 | – | 17.5 µM (inactive) | 18.4 µM (inactive) | 18.4 µM (inactive) | 18.2 µM (inactive) | 29.8 µM (inactive) | 18.6 µM (inactive) | 19.7 µM (inactive) | 19 µM (inactive) | 22 µM (inactive) | 18.8 µM (inactive) | 20.2 µM (inactive) | 19 µM (inactive) | 16.4 µM (inactive)
CC1=CC(=O)[C@@H](O)[C@]2(C)[C@H]3[C@@]4(O)OC[C@]35[C@H]([C@@H](C)[C@H]4O)[C@@H](O)C(=O)O[C@@H]5C[C@@H]12 | 0.811 µM (active) | 0.543 µM (active) | 0.33 µM (active) | 0.0428 µM (active) | 0.175 | 0.21 µM (active) | 0.387 µM (active) | 0.106 µM (active) | 0.0895 µM (active) | 1.55 µM (inactive) | 0.0438 µM (active) | 0.194 µM (active) | 0.192 µM (active) | 0.445 µM (active) | 0.219 µM (active) | – | 0.338 µM (active) | 0.0509 µM (active) | 0.312 µM (active)
